This note sets out measurements from patent publication US20130217594A1, “METHODS FOR SCREENING COMPOUNDS FOR CAPABILITY TO INHIBIT PREMALIGNANT SQUAMOUS EPITHELIAL CELL PROGRESSION TO A MALIGNANT STATE” (Institute for Cancer Research d/b/a The Research Center of …, priority 2010, published 2013).

Common to all, as to type: cell-based, human
The test system of series [1] is MSK-Leuk1 cells. Nature of the series: Apoptosis assay (Guava Nexin, annexin V). To be noted: for decrease of apoptosis: E2 1 nM, 72 h. The method, then: Apoptosis assay. Apoptosis was assessed using the Guava Nexin® (Millipore Corp., Billerica, Mass.). Fifty thousand cells were plated per well in 6-well plates. After the appropriate treatment, floating cells were collected, combined with attached cells following trypsinization, and resuspended in DermaLife® K Medium (Lifeline Cell Technology, Walkersville, Md.) supplemented with 5% FBS. The cell suspension (100 μl) was incubated with 100 μl of Guava Nexin® Reagent for 20 min, according to the manufacturer's instructions. Two thousand cells were analyzed from each sample using the Guava EasyCyte™ system, and the resulting data were expressed as a percentage of apoptotic cells (annexin V positive cells/total number of cells counted).

The subject of series [2] is MSK-Leuk1 cells. Kind of series: Quantitative real-time RT-PCR of transcript levels after E2 exposure, MSK-Leuk1 cells. To be noted: E2 1 nM. The protocol:
For all the experiments that involved estradiol (E2) exposure, MSK-Leuk1 cells were cultured in phenol red-free and serum-free DermaLife K Medium (Lifeline Cell Technology, Walkersville, Md.). SCC cells were cultured in their respective media with no phenol red, supplemented with charcoal-stripped serum (Gibco, Carlsbad, Calif.). Cells were incubated for 48 h to remove endogenous estrogens and then plated at 70% confluence. After 24 h, the medium was replaced with either control medium containing vehicle (0.01% ethanol) or medium supplemented with 1 nM E2 (Sigma-Aldrich, St. Louis, Mo.). Cells were harvested after the appropriate treatment period and analyzed.
Quantitative real-time reverse transcription PCR. RNA was extracted from pelleted cultured cells using the RNeasy Mini kit (Qiagen, Valencia, Calif.) and its quality (18S and 28S RNA) was evaluated by gel electrophoresis. cDNA was synthesized from 1 μg of total RNA, using the High Capacity cDNA Archive Kit (Applied Biosystems, Inc., Foster City, Calif.). Three μl of the resulting cDNA were mixed with 12.5 μl of 2× TaqMan® Universal PCR master mix and 1.25 μL of 20× primer mix (Applied Biosystems) in a final reaction volume of 25 μL, according to the manufacturer's instructions. Reactions were performed in triplicate in an Applied Biosystems 7900HT Fast Real-Time PCR System using universal conditions. Transcript levels were quantified and expressed relative to those of the human transferrin receptor (TFRC) as 2^-ΔCt.
(Quantitative PCR measures a nucleic acid by following its amplification.)

Series [3] relates to MSK-Leuk1 cells. Kind of series: Cell motility assay (scratch gap closure). To be noted: vector or CYP1B1 shRNA, E2 1 nM, 16 h post-scratch. The method, then: Cell motility assay. MSK-Leuk1 cells, expressing either vector or CYP1B1 shRNA, were cultured in phenol red-free and serum-free medium for 48 h and then plated at 70% confluence. After 24 h, the cells were treated with either vehicle or E2 (1 nM) in triplicate, as described above. When cells reached 100% confluence (48 h later), the surface of the cell culture dish was carefully scratched using a micropipette tip, thus making an evenly distributed gap in the cell monolayer. The medium was replaced, and five representative images of each gap were acquired at 0 h using a Nikon TE-2000U wide field inverted microscope (Optical Apparatus Co., Ardmore, Pa.) equipped with a Roper Scientific Cool Snap HQ camera. Another set of 5-10 representative images per gap was obtained following a 16-h incubation. The area devoid of cells was measured on every image using MetaMorph 7.0 (Molecular Devices, Inc., Sunnyvale, Calif.). The gap closure percentages were calculated as (area at 0 h−area at 16 h)/(area at 0 h).
In addition, a time-lapse movie capturing the process of gap closure in vector-expressing MSK-Leuk1 cells was obtained. The medium was replaced with fresh medium containing 25 mM HEPES buffer, and cells were allowed to incubate for 1 h at 37° C. […] The percentage of proliferating cells (those rounded up for cell division) was counted in this representative area.

The test system of series [4] is MSK-Leuk1 cells. Nature of the series: Cell proliferation (total DNA, Fluorescent DNA Quantitation kit). To be noted: vector-expressing MSK-Leuk1 cells, E2 1 nM, 72 h, not statistically significant. The protocol:
Cell proliferation. Fifty thousand cells/well were plated in 6-well plates. After the appropriate treatment, the DNA content of the cells, an indirect measure of proliferation, was determined using a Fluorescent DNA Quantitation kit (Bio-Rad Laboratories, Hercules, Calif.). In brief, cells were harvested, sonicated in 0.1× TEN assay buffer (Bio-Rad Laboratories) for 5 s, and incubated with a Hoechst dye mixture (BioRad Laboratories) for 1 h. Total DNA was measured using Fluoroscan Ascent FL (Thermo Fisher Scientific, Waltham, Mass.) at an excitation wavelength of 360 nm and an emission wavelength of 460 nm.

Series [5] relates to HNSCC cells. Kind of series: Quantitative real-time RT-PCR of transcript levels after E2 exposure, HNSCC cells. To be noted: E2 1 nM, 24 h. The protocol:
Cell lines and treatments. MSK-Leuk1 cells were derived from a dysplastic leukoplakia lesion located adjacent to a SCC of the tongue. MSK-Leuk1 cells were cultured in KGM medium (Lonza, Walkersville, Md.). MSK-Leuk1 cells (passage 33) were determined to be identical to the early passage MSK-Leuk1 cells (Identity Mapping Kit, Coriell Institute for Medical Research, Camden, N.J.). All HNSCC cell lines were derived from patients with SCC of the tongue. SCC9 ([…]) and SCC15 ([…]) cells were cultured in S-MEM medium, supplemented with 2 mM L-glutamine, 100 units/ml penicillin, 100 μg/ml streptomycin and 10% FBS. […]
For all the experiments that involved estradiol (E2) exposure, MSK-Leuk1 cells were cultured in phenol red-free and serum-free DermaLife K Medium (Lifeline Cell Technology, Walkersville, Md.). […] Cells were harvested after the appropriate treatment period and analyzed.
Quantitative real-time reverse transcription PCR. RNA was extracted from pelleted cultured cells using the RNeasy Mini kit (Qiagen, Valencia, Calif.) and its quality (18S and 28S RNA) was evaluated by gel electrophoresis. cDNA was synthesized from 1 μg of total RNA, using the High Capacity cDNA Archive Kit (Applied Biosystems, Inc., Foster City, Calif.). […] Transcript levels were quantified and expressed relative to those of the human transferrin receptor (TFRC) as 2^-ΔCt.

For `C[C@]12CC[C@@H]3c4ccc(O)cc4C[C@@H](CCCCCCCCC[S+]([O-])CCCC(F)(F)C(F)(F)F)[C@H]3[C@@H]1CC[C@@H]2O` (stereo partly drawn) [fulvestrant], the “effect on E2-mediated decrease in apoptosis” value in series [1] (MSK-Leuk1 cells, fulvestrant 1 μM added to E2 1 nM) is “restored”.
For the compound `C[C@]12CC[C@@H]3c4ccc(O)cc4CC[C@H]3[C@@H]1CC[C@@H]2O` [E2, 17β-estradiol], the “levels of COMT and ERβ transcripts post-treatment” value in series [2] is recorded as “remained unaltered”. In addition, in series [2] (24 h, P=0.0004), the “induction of CYP1B1 transcript levels over vehicle-treated controls” value amounted to 2.3 fold. For the same compound, the “time of peak induction of CYP1B1 transcripts” value in series [2] (time course) is listed as 6 h. Also, the decrease of apoptosis turned out to be 30.1% in series [1] (CYP1B1 shRNA-expressing MSK-Leuk1 cells, P=0.015) and 25.5% in series [1] (vector-expressing MSK-Leuk1 cells, P=0.030). In addition, the “effect of treatment on motility (gap closure)” value in series [3] was “not affected”. Moreover, the “increase of cell proliferation” value in series [4] stood at 10%. Besides, the “levels of ERβ, CYP1B1 and COMT transcripts” value in series [5] was “did not alter the level of any of the transcripts of interest”.
